Results on 3 compounds are retold here after ChEMBL document CHEMBL1134072, “Anodic oxidation of ifosfamide and cyclophosphamide: a biomimetic metabolism model of the oxazaphosphorinane anticancer drugs” (Bioorg Med Chem Lett, 2001).

pIC50: −log10 of the molar value.

This assay in a line: In vitro cytotoxicity tested as inhibitory concentration against carcinoma KB cell line. It is filed as functional, cell-based. To be noted: Homo sapiens.
What is called pIC50 is the negative decadic logarithm of the IC50, by convention in mol/L. `CO[C@@H]1CCOP(=O)(NCCCl)N1CCCl` (stereo partly drawn) had a negative logarithm of the IC50 (pIC50) of 4.66.

`CO[C@H]1CCOP(=O)(NCCCl)N1CCCl` (stereo partly drawn) showed a negative-log IC50 (pIC50) of 4.70. The pIC50 values of the last two compounds are within 0.2 log units of each other.

For `O=P1(NCCCl)OCCC(O)N1CCCl` (stereo not drawn) [ALDOIFOSFAMIDE], the pIC50 was 5.00.
